Series [1] deals with E-selectin production in irradiated HUVEC. The series can be described thus: x-ray-mediated E-selectin induction in HUVEC after inhibitor pretreatment (antibody labeling, flow cytometry). Format: cell-based, human. Particulars: H7 100 nM, staurosporin 10 nM, BPB 10 μM, mepacrine 20 μM added prior to irradiation. As to the method: HUVEC and HMEC cells were grown to 90% confluence and irradiated with a GE Maxitron x-ray generator as previously described (Hallahan et al., 1989). Cells were removed from flasks with 0.1% collagenase, 0.01% EDTA, 0.25% BSA and pelleted in 12×75 mm polystyrene tubes. The supernatant was discarded and the cells were incubated with primary IgG1 antibody (mouse anti-human ICAM-1 and E-selectin-1; R&D Systems, Inc., Minneapolis,MN) for 20 min at 4° C.
The cells were then rinsed with isotonic phosphate buffered saline (PBS), pelleted and incubated with FITC-conjugated secondary antibody (goat anti-mouse IgG1) for 20 min at 4° C. The fluorescently labeled cells were rinsed in PBS and fixed in PBS containing 0.01% paraformaldehyde.
Fluorescence activated cell sorting (FACS) analysis was utilized for quantitation of receptor expression of ICAM-1 and E-selectin on HUVEC. The Becton Dickinson FACScanner was used with Lysis II software. Forward and side scatter fluorescence data identified 10,000 viable endothelial cells in each experimental group for unlabeled cells, nonspecific-antibody-labelled cells, ICAM-1-labeled cells and E-selectin-labeled cells. Fluorescence data were then accumulated on each group of 10,000 cells at 530 nm, the wavelength emitted by FITC.
The fluorescence data were expressed as histograms of events versus log fluorescence and analyzed in comparison to the autofluorescence of unlabelled cells as well as the fluorescence of baseline ICAM-1 labelled or E-selectin-1 labeled cells as appropriate. During inhibition studies, PKC inhibitors H7 100 nM and staurosporin 10 nM or Phospholipase A2 inhibitors BPB 10 μM or mepacrine 20 μM were added to cell cultures 30 min prior to irradiation.
PKC participates in both NFkB activation and signal transduction initiated by ionizing radiation (Hallahan et al., 1991). Furthermore, PLA2 participates in free-radical and x-ray-mediated PKC activation and gene induction (Hallahan et al., 1991). To determine whether PLA2 or PKC activation is required for radiation-mediated E-selectin induction, the inventors added the PKC inhibitors H7 and staurosporin or the PLA2 inhibitors BPB or mepacrine to HUVEC […] prior to irradiation. Following irradiation, cells were scraped and E-selectin was quantified by antibody labeling and flow cytometry.
(In general: A flow cytometer gives signals particle by particle.)

The test system of series [2] is HL60 cells / irradiated HUVECs. The series can be described thus: adherence of HL60 cells to irradiated HUVECs. It counts as cell-based, human. Particulars: 1 mM; added 4 h after 10 Gy irradiation, 30 min prior to HL60 cells. As to the method: Human leukemia cell line HL60 has been used to quantify leukocyte adhesion to endothelial cells (Jones et al., 1995). HL60 cells were added to HUVECs after exposure to 10 Gy or cells treated with otherwise identical conditions without irradiation. Cultures were washed and cells were counted using a hemocytometer. […] Glycyrrhizin, carminic acid or sialyl Lewis X (1 mM each, SIGMA) were added to irradiated cells at 4 h after irradiation and 30 min prior to the addition of HL60 cells.

A further series deals with selectin. Particulars: cited from earlier work; for blocking of selectin binding to sLe^x: in vitro.
For series [3] the following is noted: rats, oral; cited from earlier work.
The test system of a further series is E-selectin. Particulars: competitive binding assay, cited from earlier work.

For the compound `CCN(CC)CCCC(C)Nc1c2ccc(Cl)cc2nc2ccc(OC)cc12` (stereo not shown) [mepacrine], the “radiation-mediated E-selectin production” value in series [1] was “not attenuated”.

As to `CC1CNCCN1S(=O)(=O)c1cccc2cnccc12` (stereo not shown) [H7], the “radiation-mediated E-selectin production” value in series [1] is listed as “not attenuated”. Take `CC1(C)[C@@H](O[C@H]2O[C@H](C(=O)O)[C@@H](O)[C@H](O)[C@H]2O[C@@H]2O[C@H](C(=O)O)[C@@H](O)[C@H](O)[C@H]2O)CC[C@]2(C)[C@H]3C(=O)C=C4[C@@H]5C[C@@](C)(C(=O)O)CC[C@]5(C)CC[C@@]4(C)[C@]3(C)CC[C@@H]12` [Glycyrrhizin]: in series [2], the “adherence of HL60 cells to irradiated HUVECs” value (“adherence of HL60 cells” for short) was “blocked the adherence”. Moreover, the “blocking of selectin binding to sLe^x” value with selectin is recorded as “block selectin binding”. Further, in series [3], the “absorption from the gut” value is given as “poorly absorbed”. Consider `CN[C@@H]1C[C@H]2O[C@@](C)([C@@H]1OC)n1c3ccccc3c3c4c(c5c6ccccc6n2c5c31)C(=O)NC4` [staurosporin], for which, in series [1], the “radiation-mediated E-selectin production” value is listed as “not attenuated”.

On to `COC(=O)CCCCCCCCO[C@@H]1O[C@H](CO)[C@@H](O[C@@H]2O[C@@H](C)[C@@H](O)[C@@H](O)[C@@H]2O)[C@H](O[C@@H]2O[C@H](CO)[C@H](O)[C@H](O[C@]3(C(=O)O)C[C@H](O)[C@@H](NC(C)=O)[C@H]([C@H](O)[C@H](O)CO)O3)[C@H]2O)[C@H]1N` [amino substituted sLe^a], for which, in the series on E-selectin, the “activity relative to the reducing tetrasaccharide sLe^x” value is recorded as 36 fold. Further, in the series on E-selectin (read-out: IC50 (blocking of E-selectin)), the IC50 is 21 ± 3 µM. For the compound `CC(=O)N[C@H]1[C@H]([C@H](O)[C@H](O)CO)O[C@@](O[C@H]2[C@@H](O)[C@@H](CO)O[C@@H](O[C@H]3[C@H](O[C@@H]4O[C@@H](C)[C@@H](O)[C@@H](O)[C@@H]4O)[C@@H](NC(C)=O)C(O)O[C@@H]3CO)[C@@H]2O)(C(=O)O)C[C@@H]1O` (stereo partly shown) [sialyl Lewis X, Neu5Acα2-3Galβ1-4[Fucα1-3]GlcNAc], in series [2], the “adherence of HL60 cells” value is reported as “blocked the adherence”. Consider `CC1(C)[C@@H](O)CC[C@]2(C)[C@H]3C(=O)C=C4[C@@H]5C[C@@](C)(C(=O)O)CC[C@]5(C)CC[C@@]4(C)[C@]3(C)CC[C@@H]12` [18-β-glycyrrhetinic acid], for which the IC50 in the series with selectin (read-out: IC50 (blocking selectin activity)) was more than 2000 µM. Consider `Cc1c(C(=O)O)c(O)cc2c1C(=O)c1c(O)c([C@@H]3O[C@H](CO)[C@@H](O)[C@H](O)[C@H]3O)c(O)c(O)c1C2=O` [carminic acid], for which the “adherence of HL60 cells” value in series [2] was “blocked the adherence”. In addition, the “blocking of selectin binding to sLe^x” value with selectin is recorded as “blocked selectin binding at concentrations comparable to those of glycyrrhizin”. Consider `O=C(CBr)c1ccc(Br)cc1` [BPB], for which the “radiation-mediated E-selectin production” value in series [1] is given as “not attenuated”.

What is called IC50 is the point on the concentration scale where inhibition reaches its midpoint.

Values taken from US5962424A, “Methods and compositions for targeting selectins” (Arch Development Corporation, priority 1995, dated 1999).
